In paper PMC6179904 (Developmental Cell, 2018):

Tested on: Jurkat T-cells
Format: cell-based, human

SMILES | LCK localization ratio (LR) at the immune synapse
Nc1ncnc2c1c(-c1ccc(Oc3ccccc3)cc1)cn2C1CCCC1 [LCK inhibitor (CAS 213743-31-8)] | 1.05
CCOC(=O)N1CCC(Nc2c(NCCN3CCN(c4cccc(C(F)(F)F)c4)CC3)c(=O)c2=O)CC1 [squarunkin A] | 0.94
